Source: US20160100579A1, “NEMATICIDAL N-(2-SUBSTITUTED 2-PHENYLETHYL)CARBOXAMIDES AND N-(2-SUBSTITUTED 2-PHENYLETHYL)-THIOCARBOXAMIDES” (priority 2013, published 2016)

Assay: Measurement of log P values by HPLC on reversed phase columns (EEC directive 79/831 Annex V.A8; methods [a] pH 2.3, [b] pH 2.7, [c] pH 7.8)
Type: physicochemical
Description: Measurement of log P-values:
Measurement of log P values was performed according EEC directive 79/831 Annex V.A8 by HPLC (High Performance Liquid Chromatography) on reversed phase columns with the following methods:
^[a] Measurement was done at pH 2.3 with 0.1% phosphoric acid and acetonitrile as eluent with a linear gradient from 10% acetonitrile to 95% acetonitrile.
^[b] measurement of LC-MS was done at pH 2.7 with 0.1% formic acid in water and with acetonitrile (contains 0.1% formic acid) as eluent with a linear gradient from 10% acetonitrile to 95% acetonitrile.
^[c] Measurement with LC-MS was done at pH 7.8 with 0.001 molar ammonium hydrogen carbonate solution in water as eluent with a linear gradient from 10% acetonitrile to 95% acetonitrile.
Calibration was done with not branched alkan2-ones (with 3 to 16 carbon atoms) with known log P-values (measurement of log P values using retention times with linear interpolation between successive alkanones).. lambda-maX-values were determined using UV-spectra from 200 nm to 400 nm and the peak values of the chromatographic signals.

[1] = method [b]: LC-MS, pH 2.7, 0.1% formic acid in water / acetonitrile
[2] = method [c]: LC-MS, pH 7.8, 0.001 molar ammonium hydrogen carbonate / acetonitrile
[3] = method [b]: LC-MS at pH 2.7, 0.1% formic acid in water / acetonitrile
[4] = method [c]: LC-MS at pH 7.8, 0.001 molar ammonium hydrogen carbonate in water / acetonitrile

Structure (SMILES) | logP [1] | log P [3] | also measured
COC(CNC(=O)c1cn(C)nc1C(F)F)c1ccccc1 (centres unmarked) [Compound 16] | 1.93^[b] | – | –
COC(CNC(=O)c1c(C(F)F)nn(C)c1Cl)c1cc(Cl)cc(Cl)c1 (centres unmarked) [Compound 40] | 3.55^[b] | – | –
COC(CNC(=O)c1c(C(F)F)nn(C)c1F)c1cc(Cl)cc(Cl)c1 (centres unmarked) [Compound 41] | 3.33^[b] | – | –
COC(c1cc(Cl)cc(Cl)c1)C(C)NC(=O)c1c(C(F)F)nn(C)c1Cl (centres unmarked) [Compound 42] | 3.92^[b] | – | –
COC(c1cc(Cl)cc(Cl)c1)C(C)NC(=O)c1c(C(F)F)nn(C)c1F (centres unmarked) [Compound 43] | 3.70^[b] | – | –
COC(CNC(=O)c1c(C(F)F)nn(C)c1Cl)c1ccc(Cl)cc1Cl (centres unmarked) [Compound 44] | 3.48^[b] | – | –
COC(CNC(=O)c1c(C(F)F)nn(C)c1F)c1ccc(Cl)cc1Cl (centres unmarked) [Compound 45] | 3.25^[b] | – | –
CCOC(c1ccc(Cl)cc1Cl)C(C)NC(=O)c1c(C(F)F)nn(C)c1Cl (centres unmarked) [Compound 46] | 4.46^[b] | – | –
CCOC(c1ccc(Cl)cc1Cl)C(C)NC(=O)c1c(C(F)F)nn(C)c1F (centres unmarked) [Compound 47] | 4.20^[b] | – | –
CCC(NC(=O)c1c(C(F)F)nn(C)c1Cl)C(OC)c1ccc(Cl)cc1Cl (centres unmarked) [Compound 48] | 4.18^[b] | – | –
CCC(NC(=O)c1c(C(F)F)nn(C)c1F)C(OC)c1ccc(Cl)cc1Cl (centres unmarked) [Compound 49] | 3.94^[b] | – | –
COC(c1ccc(Cl)cc1Cl)C1(NC(=O)c2c(C(F)F)nn(C)c2Cl)CC1 (centres unmarked) [Compound 50] | 3.70^[b] | – | –
COC(c1ccc(Cl)cc1Cl)C1(NC(=O)c2c(C(F)F)nn(C)c2F)CC1 (centres unmarked) [Compound 51] | 3.46^[b] | – | –
CCn1nc(C)c(C)c1C(=O)NC(C)C(OC)c1ccccc1 (centres unmarked) [Compound 55] | 2.71^[b] | – | –
COC(c1ccc(Cl)cc1)C(C)NC(=O)c1snc(Cl)c1Cl (centres unmarked) [Compound 61] | 4.34^[b] | – | –
COC(c1ccc(Cl)cc1)C(C)NC(=O)c1ccsc1 (centres unmarked) [Compound 62] | 2.84^[b] | – | –
COC(CNC(=O)c1c(F)cccc1F)c1ccc(Cl)cc1 (centres unmarked) [Compound 72] | 2.81^[b] | – | logP [2]: 2.79^[c];
COC(c1ccc(Cl)cc1Cl)C(C)(C)NC(=O)c1ccccc1F (centres unmarked) [Compound 74] | 4.80^[b] | – | logP [2]: 4.77^[c];
COC(c1ccc(Cl)cc1Cl)C(C)(C)NC(=O)c1ccccc1Cl (centres unmarked) [Compound 75] | 4.59^[b] | – | logP [2]: 4.54^[c];
COC(c1ccc(Cl)cc1Cl)C(C)(C)NC(=O)c1ccccc1C(F)(F)F (centres unmarked) [Compound 76] | 4.68^[b] | – | logP [2]: 4.62^[c];
COC(c1ccc(Cl)cc1Cl)C(C)(C)NC(=O)c1c(F)cccc1F (centres unmarked) [Compound 77] | 4.29^[b] | – | logP [2]: 4.24^[c];
COC(c1ccc(Cl)cc1Cl)C(C)(C)NC(=O)c1sccc1Cl (centres unmarked) [Compound 78] | 5.34^[b] | – | logP [2]: 5.31^[c];
COC(c1ccc(Cl)cc1Cl)C(C)(C)NC(=O)c1occc1Br (centres unmarked) [Compound 80] | 4.59^[b] | – | logP [2]: 4.37^[c];

Structure (SMILES) | logP [1] | log P [3] | also measured
COC(c1ccc(Cl)cc1)C(C)(C)NC(=O)c1cccnc1Cl (centres unmarked) [Compound 81] | 3.24^[b] | – | logP [2]: 3.23^[c];
COC(c1ccc(Cl)cc1)C(C)(C)NC(=O)c1c(F)cccc1F (centres unmarked) [Compound 82] | 3.78^[b] | – | logP [2]: 3.79^[c];
COC(c1ccc(Cl)cc1)C(C)(C)NC(=O)c1ccccc1F (centres unmarked) [Compound 83] | 4.24^[b] | – | logP [2]: 3.99^[c];
COC(c1ccc(Cl)cc1)C(C)(C)NC(=O)c1ccccc1Cl (centres unmarked) [Compound 84] | 4.12^[b] | – | logP [2]: 3.87^[c];
COC(c1ccc(Cl)cc1)C(C)(C)NC(=O)c1ccccc1C(F)(F)F (centres unmarked) [Compound 85] | 4.25^[b] | – | logP [2]: 3.99^[c];
COC(c1ccc(Cl)cc1)C(C)(C)NC(=O)c1sccc1Cl (centres unmarked) [Compound 86] | 4.72^[b] | – | logP [2]: 4.43^[c];
COC(c1ccc(Cl)cc1)C(C)(C)NC(=O)c1sccc1I (centres unmarked) [Compound 87] | 4.77^[b] | – | logP [2]: 4.47^[c];
CCC(NC(=O)c1cccnc1Cl)C(OC)c1ccc(Cl)cc1Cl (centres unmarked) [Compound 89] | 3.33^[b] | – | –
CCC(NC(=O)c1cccnc1C(F)F)C(OC)c1ccc(Cl)cc1Cl (centres unmarked) [Compound 90] | 3.35^[b] | – | –
CCC(NC(=O)c1cccnc1C(F)(F)F)C(OC)c1ccc(Cl)cc1Cl (centres unmarked) [Compound 91] | 3.70^[b] | – | –
COC(c1cc(Cl)cc(Cl)c1)C(C)NC(=O)c1cccnc1C(F)F (centres unmarked) [Compound 93] | 2.03^[b] | – | –
COC(c1cc(Cl)cc(Cl)c1)C(C)NC(=O)c1cccnc1Cl (centres unmarked) [Compound 94] | 3.17^[b] | – | –
COC(c1cc(Cl)cc(Cl)c1)C(C)NC(=O)c1nccnc1C(F)(F)F (centres unmarked) [Compound 95] | 3.74^[b] | – | –
COC(c1cc(Cl)cc(Cl)c1)C(C)NC(=O)c1cccnc1C(F)(F)F (centres unmarked) [Compound 96] | 3.52^[b] | – | –
COC(c1ccc(Cl)cc1Cl)C1(NC(=O)c2cccnc2C(F)F)CC1 (centres unmarked) [Compound 97] | 3.06^[b] | – | –
COC(CNC(=O)c1cccnc1C(F)F)c1ccc(Cl)cc1Cl (centres unmarked) [Compound 101] | 2.80^[b] | – | –
COC(CNC(=O)c1cccnc1Cl)c1ccc(Cl)cc1Cl (centres unmarked) [Compound 102] | 2.75^[b] | – | –
COC(c1ccc(Cl)cc1Cl)C(C)NC(=O)c1c(C)c(C)nn1C(F)F (centres unmarked) [Compound 116] | – | 3.97^[b] | log P [4]: 3.84^[c];
COC(CNC(=O)c1cccnc1C(F)F)c1cc(Cl)cc(Cl)c1 (centres unmarked) [Compound 117] | – | 2.88^[b] | –
COC(CNC(=O)c1cccnc1Cl)c1cc(Cl)cc(Cl)c1 (centres unmarked) [Compound 118] | – | 2.82^[b] | –
COC(CNC(=O)c1cccnc1C(F)(F)F)c1cc(Cl)cc(Cl)c1 (centres unmarked) [Compound 119] | – | 3.19^[b] | –
COC(c1ccc(Cl)cc1)C(C)NC(=O)c1c(F)cccc1F (centres unmarked) [Compound 132, N-[1-(4-chlorophenyl)-1-methoxypropan-2-yl]-2,6-difluorobenzamide] | – | – | chromatographic logP (method [b]: LC-MS at pH 2.7, 0.1% formic acid in water / acetonitrile, read-out: log P): 3.12
COC(c1ccc(Cl)cc1)C(C)NC(=O)c1ccccc1F (centres unmarked) [Compound 133] | – | 3.40^[b] | log P [4]: 3.44^[c];

Structure (SMILES) | logP [1] | log P [3] | also measured
COC(c1ccc(Cl)cc1)C(C)NC(=O)c1c(F)cccc1C(F)(F)F (centres unmarked) [Compound 134] | – | 3.65^[b] | log P [4]: 3.61^[c];
COC(c1ccc(Cl)cc1)C(C)NC(=O)c1cccnc1Cl (centres unmarked) [Compound 135] | – | 2.65^[b] | log P [4]: 2.62^[c];
COC(c1ccc(Cl)cc1)C(C)NC(=O)c1ccccc1I (centres unmarked) [Compound 137] | – | 3.44^[b] | log P [4]: 3.42^[c];
COC(c1ccccc1Cl)C(C)NC(=O)c1ccccc1[N+](=O)[O-] (centres unmarked) [Compound 138] | – | 2.82^[b] | log P [4]: 2.78^[c];
COC(c1ccc(Cl)cc1)C(C)NC(=O)c1ccccc1[N+](=O)[O-] (centres unmarked) [Compound 139] | – | 2.83^[b] | log P [4]: 2.93^[c];
COC(c1ccccc1Cl)C(C)NC(=O)c1ccccc1C(F)(F)F (centres unmarked) [Compound 145] | – | 3.45^[b] | log P [4]: 3.41^[c];
COC(c1ccccc1Cl)C(C)NC(=O)c1ccccc1I (centres unmarked) [Compound 146] | – | 3.44^[b] | log P [4]: 3.40^[c];
COC(c1ccccc1Cl)C(C)NC(=O)c1ccccc1F (centres unmarked) [Compound 147] | – | 3.44^[b] | log P [4]: 3.42^[c];
COC(c1ccccc1Cl)C(C)NC(=O)c1ccccc1C (centres unmarked) [Compound 148] | – | 3.26^[b] | log P [4]: 3.23^[c];
COC(c1ccc(Cl)cc1Cl)C1(NC(=O)c2c(F)cccc2C(F)(F)F)CC1 (centres unmarked) [Compound 149] | – | 4.00^[b] | log P [4]: 3.95^[c];
COC(c1ccc(Cl)cc1Cl)C1(NC(=O)c2c(F)cccc2F)CC1 (centres unmarked) [Compound 150] | – | 3.57^[b] | log P [4]: 3.53^[c];
COC(c1ccc(Cl)cc1Cl)C1(NC(=O)c2ccccc2Br)CC1 (centres unmarked) [Compound 151] | – | 3.82^[b] | log P [4]: 3.76^[c];
COC(c1ccc(Cl)cc1Cl)C1(NC(=O)c2ccccc2I)CC1 (centres unmarked) [Compound 152] | – | 3.92^[b] | log P [4]: 3.88^[c];
COC(c1ccc(Cl)cc1Cl)C1(NC(=O)c2ccccc2C)CC1 (centres unmarked) [Compound 153] | – | 3.75^[b] | log P [4]: 3.72^[c];
COC(c1ccc(Cl)cc1Cl)C1(NC(=O)c2ccccc2Cl)CC1 (centres unmarked) [Compound 154] | – | 3.76^[b] | log P [4]: 3.71^[c];
COC(c1ccc(Cl)cc1Cl)C1(NC(=O)c2ccccc2F)CC1 (centres unmarked) [Compound 155] | – | 3.78^[b] | log P [4]: 3.75^[c];
COC(c1ccc(Cl)cc1Cl)C(C)N(C(=O)c1ncc(Cl)cc1C(F)(F)F)C1CC1 (centres unmarked) [Compound 159] | – | 5.39^[b] | –
COC(CN(C(=O)c1cccnc1C(F)(F)F)C1CC1)c1ccc(Cl)cc1Cl (centres unmarked) [Compound 166] | – | 4.16^[b] | –
COC(CN(C(=O)c1cccnc1Cl)C1CC1)c1ccc(Cl)cc1Cl (centres unmarked) [Compound 167] | – | 3.76^[b] | –
COC(CN(C(=O)c1nccnc1C(F)(F)F)C1CC1)c1ccc(Cl)cc1Cl (centres unmarked) [Compound 168] | – | 4.37^[b] | –
COC(CN(C(=O)C1=C(C)OCCS1)C1CC1)c1ccc(Cl)cc1Cl (centres unmarked) [Compound 169] | – | 4.11^[b] | –
COC(c1ccc(Cl)cc1Cl)C(C)N(C(=O)c1cccnc1Cl)C1CC1 (centres unmarked) [Compound 170] | – | 4.03^[b] | –
COC(c1ccc(Cl)cc1Cl)C(C)N(C(=O)c1cccnc1C(F)F)C1CC1 (centres unmarked) [Compound 171] | – | 3.92^[b] | –
